Patent EP0353049A2, “NAD-independent alpha- glycerol-3-phosphate dehydrogenases, production and use therof in triglyceride and glycerol determinations” (Genzyme (U.K.) LTD., priority 1988, dated 1990)

How the values were obtained:
enzyme from E. coli = enzyme from E. coli (Escherichia coli, UniProt P13035); conditions: cited from earlier work
[1] = molecular target: T1, NAD-independent α-glycerol-3-phosphate dehydrogenase (Priestia megaterium, UniProt D5DYU7); experiment: α-glycerol-3-phosphate dehydrogenase activity assay (rate of INT reduction, absorbance at 505nm, 37°C); assay type: biochemical, B. megaterium; conditions: concentration of inhibitor bringing about 50% inhibition
T1 sequence (D5DYU7 1-559): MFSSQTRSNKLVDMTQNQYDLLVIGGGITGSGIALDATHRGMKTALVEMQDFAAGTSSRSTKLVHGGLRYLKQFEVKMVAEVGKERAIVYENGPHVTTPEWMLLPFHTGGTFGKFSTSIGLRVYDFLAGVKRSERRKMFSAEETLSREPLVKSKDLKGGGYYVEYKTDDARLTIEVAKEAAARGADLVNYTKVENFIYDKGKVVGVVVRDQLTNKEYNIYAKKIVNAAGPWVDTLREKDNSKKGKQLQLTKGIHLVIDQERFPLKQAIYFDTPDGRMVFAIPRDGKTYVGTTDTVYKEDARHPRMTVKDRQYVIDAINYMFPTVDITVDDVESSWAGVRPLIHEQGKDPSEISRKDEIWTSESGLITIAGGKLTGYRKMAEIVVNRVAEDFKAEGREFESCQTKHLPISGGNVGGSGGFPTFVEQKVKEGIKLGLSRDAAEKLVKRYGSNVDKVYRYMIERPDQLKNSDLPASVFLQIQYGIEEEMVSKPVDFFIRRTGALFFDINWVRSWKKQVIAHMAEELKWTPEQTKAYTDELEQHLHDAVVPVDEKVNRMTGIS
Protocol: Aliquots of the resulting cell-free extract and other samples containing partially purified α-glycerol-3-phosphate dehydrogenase were used in the following assay test system:
The rate of change of absorbance was measured at 505nm, 37°C in a spectrophotometer. According to such test, the specific activity of the purified enzyme (from gel filtration chromatography) was 1.0 unit/mg protein; a unit is number of µmoles of INT reduced per min.

enzyme from E. coli, sequence (P13035 whole entry): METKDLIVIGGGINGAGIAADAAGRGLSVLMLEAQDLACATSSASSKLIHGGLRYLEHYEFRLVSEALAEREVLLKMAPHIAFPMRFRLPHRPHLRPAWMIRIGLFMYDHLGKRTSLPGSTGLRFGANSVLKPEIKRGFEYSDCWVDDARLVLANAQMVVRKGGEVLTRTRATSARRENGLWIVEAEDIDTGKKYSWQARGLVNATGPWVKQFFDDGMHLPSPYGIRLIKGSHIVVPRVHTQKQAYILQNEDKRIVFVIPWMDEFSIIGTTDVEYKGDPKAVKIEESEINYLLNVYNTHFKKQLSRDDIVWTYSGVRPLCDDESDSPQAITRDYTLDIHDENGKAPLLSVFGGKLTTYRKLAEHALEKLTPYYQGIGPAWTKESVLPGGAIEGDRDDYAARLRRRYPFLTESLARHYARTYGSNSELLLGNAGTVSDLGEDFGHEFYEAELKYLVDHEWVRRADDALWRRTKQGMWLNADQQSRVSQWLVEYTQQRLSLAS

Compound | Km (enzyme from E. coli) | 50% inhibition of enzyme activity (concentration) [1]
O=P(O)(O)OC[C@H](O)CO [L-α-glycerol-3-phosphate] | 400 µM | 
ammonium sulphate |  | 1%
